Experimental data from the supplement of paper PMC10307832.

Assays:
Test in all cases: relative viability (nuclei count vs DMSO), 5 days (fraction); higher = more cells survive
[1] = compound: C1CN(CCC1C(C2=CC3=C(C=C2)OCO3)(C4=CC5=C(C=C4)OCO5)O)C(=O)OC6=CC=C(C=C6)[N+](=O)[O-] [JZL-184] + CC(=O)c1c(C)c2cnc(Nc3ccc(N4CCNCC4)cn3)nc2n(C2CCCC2)c1=O [Palbociclib] (partner 0.5 µM)
How it was run: (§1)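 Relative viability is defined as nuclei in treated wells over nuclei in vehicle wells. Duplicate plates were run and medians reported. Lung cancer cell lines in 1536-well plates were dosed by pin tool one day after seeding, with one drug or with a fixed anchor-drug dose plus five library-drug doses (not always all listed) in √10 steps, and nuclei were counted after 5 days.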

[2] = compound: C1CN(CCC1C(C2=CC3=C(C=C2)OCO3)(C4=CC5=C(C=C4)OCO5)O)C(=O)OC6=CC=C(C=C6)[N+](=O)[O-] [JZL-184] + CS(=O)(=O)N1CCN(Cc2cc3nc(-c4cccc5[nH]ncc45)nc(N4CCOCC4)c3s2)CC1 [Pictilisib] (partner 1 µM)
How it was run: as §1

[3] = compound: C1CN(CCC1C(C2=CC3=C(C=C2)OCO3)(C4=CC5=C(C=C4)OCO5)O)C(=O)OC6=CC=C(C=C6)[N+](=O)[O-] [JZL-184] + Nc1nc2[nH]cc(CCc3ccc(C(=O)N[C@@H](CCC(=O)O)C(=O)O)cc3)c2c(=O)[nH]1 [Pemetrexed] (partner 0.2 µM)
How it was run: as §1

[4] = compound: C1CN(CCC1C(C2=CC3=C(C=C2)OCO3)(C4=CC5=C(C=C4)OCO5)O)C(=O)OC6=CC=C(C=C6)[N+](=O)[O-] [JZL-184] + CS(=O)(=O)CCNCc1ccc(-c2ccc3ncnc(Nc4ccc(OCc5cccc(F)c5)c(Cl)c4)c3c2)o1 [Lapatinib] (partner 2 µM)
How it was run: as §1

[5] = compound: C1CN(CCC1C(C2=CC3=C(C=C2)OCO3)(C4=CC5=C(C=C4)OCO5)O)C(=O)OC6=CC=C(C=C6)[N+](=O)[O-] [JZL-184] + CC(C)C[C@H](NC(=O)[C@H](Cc1ccccc1)NC(=O)c1cnccn1)B(O)O [Bortezomib] (partner 0.002 µM)
How it was run: as §1

Cell Line | relative viability ([1]; first compound 0.04 µM) | relative viability ([1]; first compound 0.4 µM) | relative viability ([1]; first compound 1.265 µM) | relative viability ([1]; first compound 4 µM) | relative viability ([2]; first compound 0.04 µM) | relative viability ([2]; first compound 0.4 µM) | relative viability ([2]; first compound 1.265 µM) | relative viability ([2]; first compound 4 µM) | relative viability ([3]; first compound 0.04 µM) | relative viability ([3]; first compound 0.4 µM) | relative viability ([3]; first compound 1.265 µM) | relative viability ([3]; first compound 4 µM) | relative viability ([4]; first compound 0.04 µM) | relative viability ([4]; first compound 0.4 µM) | relative viability ([4]; first compound 1.265 µM) | relative viability ([4]; first compound 4 µM) | relative viability ([5]; first compound 0.04 µM) | relative viability ([5]; first compound 0.4 µM) | relative viability ([5]; first compound 1.265 µM) | relative viability ([5]; first compound 4 µM)
NCI-H1650 | 0.395 | 0.368 | 0.408 | 0.302 | 0.734 | 0.53 | 0.741 | 0.696 | 0.341 | 0.391 | 0.366 | 0.354 | 0.821 | 0.735 | 0.939 | 0.718 | 0.192 | 0.179 | 0.228 | 0.198
NCI-H1651 | 0.547 | 0.529 | 0.558 | 0.519 | 0.842 | 0.533 | 0.536 | 0.499 | 0.592 | 0.362 | 0.411 | 0.595 | 0.833 | 0.715 | 0.888 | 0.798 | 0.993 | 0.954 | 1 | 0.999
NCI-H1666 | 0.685 | 0.642 | 0.636 | 0.668 | 0.483 | 0.517 | 0.5 | 0.491 | 0.802 | 0.842 | 0.875 | 0.865 | 0.647 | 0.65 | 0.585 | 0.633 | 0.98 | 0.714 | 0.868 | 0.904
NCI-H1734 | 0.394 | 0.293 | 0.37 | 0.292 | 0.519 | 0.471 | 0.505 | 0.482 | 0.462 | 0.426 | 0.419 | 0.42 | 1.22 | 0.959 | 1.15 | 1.04 | 1.03 | 0.842 | 1.02 | 0.884
NCI-H1755 | 0.44 | 0.451 | 0.473 | 0.452 | 0.432 | 0.339 | 0.545 | 0.401 | 0.432 | 0.367 | 0.475 | 0.484 | 1.02 | 1.01 | 1.07 | 0.962 | 1.13 | 0.895 | 0.933 | 0.859
NCI-H1792 | 0.677 | 0.687 | 0.659 | 0.656 | 0.304 | 0.232 | 0.302 | 0.28 | 1.05 | 0.699 | 1.1 | 0.812 | 0.974 | 0.858 | 0.926 | 0.96 | 1.13 | 0.405 | 0.954 | 0.952
NCI-H1915 | 0.506 | 0.511 | 0.531 | 0.511 | 1.05 | 0.914 | 1.1 | 0.918 | 0.506 | 0.485 | 0.535 | 0.534 | 1.15 | 0.973 | 0.998 | 0.935 | 0.992 | 0.93 | 1.03 | 1.03
NCI-H1975 | 0.679 | 0.579 | 0.614 | 0.575 | 0.347 | 0.281 | 0.304 | 0.287 | 0.307 | 0.281 | 0.296 | 0.263 | 1.08 | 0.824 | 1.02 | 0.888 | 0.361 | 0.419 | 0.358 | 0.336
NCI-H1993 | 0.707 | 0.604 | 0.758 | 0.604 | 0.721 | 0.864 | 0.847 | 0.794 | 0.63 | 0.577 | 0.619 | 0.68 | 0.767 | 0.807 | 0.827 | 0.885 | 1.17 | 1.14 | 1.21 | 1.22
NCI-H2009 | 0.172 | 0.188 | 0.241 | 0.219 | 0.985 | 0.672 | 0.914 | 0.844 | 1.14 | 1.03 | 1.04 | 0.994 | 1.15 | 0.805 | 0.928 | 1.01 | 1.2 | 0.946 | 1.02 | 0.938
NCI-H2023 | 0.56 | 0.354 | 0.393 | 0.249 | 0.27 | 0.22 | 0.301 | 0.241 | 0.281 | 0.167 | 0.258 | 0.227 | 1.14 | 0.853 | 0.964 | 0.802 | 1.03 | 0.947 | 1.01 | 0.865
NCI-H2085 | – | 0.489 | 0.44 | 0.469 | 0.459 | 0.401 | 0.467 | 0.549 | – | 0.817 | 0.948 | 0.882 | – | 0.657 | 0.764 | 0.753 | 0.914 | 1.06 | 1.04 | 0.91
NCI-H2087 | 0.231 | 0.215 | 0.259 | 0.227 | 0.824 | 0.677 | 0.934 | 1 | 0.667 | 0.663 | 0.631 | 0.636 | 1.29 | 0.824 | 0.99 | 1.18 | 0.901 | 0.811 | 0.845 | 0.771
NCI-H2126 | 0.329 | 0.357 | 0.359 | 0.345 | 0.498 | 0.499 | 0.514 | 0.5 | 0.663 | 0.66 | 0.726 | 0.705 | 0.755 | 0.779 | 0.768 | 0.764 | 1.13 | 1.09 | 1.09 | 1.15
NCI-H2228 | 0.947 | 0.511 | 0.842 | 0.768 | 0.235 | 0.311 | 0.309 | 0.518 | 0.397 | 0.336 | 0.38 | 0.337 | 1.37 | 0.796 | 1.03 | 1.15 | 1.1 | 1.01 | 0.995 | 0.835
